{"source": "patent US20090011410A1", "about": "“METHOD FOR TAILORING ADMINISTRATION OF DRUGS BY QUANTITATION OF MRNA” (priority 2004, published 2009)", "assay_type_in_all_cases": "cell-based, human", "key": {"[1]": {"system": "p21 mRNA, U937 cells", "assay": "etoposide-induced p21 mRNA expression in cultured U937 cells", "conditions": "10 μM etoposide, 2 hours at 37° C. (FIG. 1)", "method": "Blood was obtained from healthy adults and from two leukemic non-Hodgkin's malignant lymphoma patients. […] For human experiments, blood aliquots were stimulated with various anti-cancer drugs at 37° C. for 2 hours, then both p21 and BAX mRNA were measured. The anti-cancer drugs used in this study were clinical drugs, and the concentration of each drug was adjusted to typical blood levels 3-6 hours after intravenous administration.\nThe mRNA and cDNA were prepared from whole blood. In brief, home-made 96-well filterplates were placed over collection plates, and 150 μl 5 mM Tris, pH 7.4, was applied. Following centrifugation at 120×g for 1 min at 4° C., 50 μl of blood samples were applied to each well and immediately centrifuged at 120×g for 2 min at 4° C., followed by washing of each well with 300 μl PBS once with centrifugation at 2000×g for 5 min at 4° C. […] The Ct was determined by analytical software (SDS, ABI)."}, "[2]": {"system": "p21 mRNA, U937 cells mixed with blood", "assay": "etoposide-induced p21 mRNA expression from U937 cells mixed in healthy adult blood", "conditions": "10 μM etoposide-treated U937, 1,250 U937 cells added to 1 μL blood, vs DMSO-treated U937 (FIG. 2)", "procedure": "The mRNA and cDNA were prepared from whole blood. In brief, home-made 96-well filterplates were placed over collection plates, and 150 μl 5 mM Tris, pH 7.4, was applied. Following centrifugation at 120×g for 1 min at 4° C., 50 μl of blood samples were applied to each well and immediately centrifuged at 120×g for 2 min at 4° C., followed by washing of each well with 300 μl PBS once with centrifugation at 2000×g for 5 min at 4° C. Then, 60 μl stock lysis buffer, containing for example 0.5% N-Lauroylsarcosine, 4×SSC, 10 mM Tris HCl, pH 7.4, 1 mM EDTA, 0.1% IGEPAL CA-630, and 1.791 M guanidine thiocyanate, supplemented with 1% 2-mercaptoethanol (Bio Rad, Hercules, Calif., USA), 0.5 mg/ml proteinase K (Pierce, Rockford, Ill., USA), 0.1 mg/ml salmon sperm DNA (5 Prime Eppendorf/Brinkmann, Westbury, N.Y., USA), 0.1 mg/ml E. coli tRNA (Sigma), a cocktail of 10 mM each of the specific reverse primers shown in Table 1, and standard RNA34 oligonucleotides, were applied to the filterplates, followed by incubation at 37° C. for 10 min. The filterplates were then placed over oligo(dT)-immobilized microplates (GenePlate, RNAture), and centrifuged at 2000×g for 5 min at 4° C. […] The Ct was determined by analytical software (SDS, ABI). […]"}, "[3]": {"system": "PUMA mRNA", "assay": "drug-induced PUMA mRNA expression in whole blood of leukemia and lymphoma patients", "conditions": "2 hours at 37° C."}}, "data": [{"smiles": "COc1cc([C@@H]2c3cc4c(cc3[C@@H](O[C@@H]3O[C@@H]5CO[C@@H](C)O[C@H]5[C@H](O)[C@H]3O)[C@H]3COC(=O)[C@H]23)OCO4)cc(OC)c1O", "note": "[VP-16, etoposide]", "values": [{"measurement": "p21 expression", "setting": "[1]", "result": "slight but significant p21 expression"}, {"measurement": "p21 mRNA expression", "setting": "[2]", "result": "significant"}, {"measurement": "PUMA induction", "setting": "[3]; AML patient, drug concentrations of b94 (FIG. 8B)", "result": "huge induction"}, {"measurement": "PUMA response", "setting": "[3]; NHL patient, drug concentrations (FIG. 8C)", "result": "strong PUMA response"}]}]}
